Key:
[1] = test system: velvetleaf; assay: Test Example 5: herbicidal effect by foliage application, plastic box (Table 20, symbol M); type: in vivo, velvetleaf (Abutilon theophrasti); conditions: 320 g/ha, foliage application after 14-day growth, evaluated three weeks after application
How it was run: (§1)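 Plants sown in sterilized diluvial soil and grown 14 days in a greenhouse at 25° C to 30° C, then sprayed on the foliage with the compound's emulsion diluted in water to a predetermined herbicide amount. Injury to weeds and crops scored three weeks after application on a visual rating scale.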

[2] = test system: late watergrass; assay: Test Example 1: herbicidal activity, application before weed generation under submerged conditions (Table 16, symbol A); type: in vivo, late watergrass (Echinochloa oryzicola); conditions: amount of applied herbicide 320 g/ha
How it was run: (§2)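 Submerged Wagner pots (alluvial soil, 4 cm water) sown with weed seeds and planted with 2.5-leaf rice seedlings; emulsifiable concentrate diluted in water applied to water surface on sowing day. Held in greenhouse at 25-30 °C; injury scored 0-5 by herbicidal rate after three weeks.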

[3] = test system: barnyard grass; assay: Test Example 5: herbicidal effect by foliage application, plastic box (Table 20, symbol H); type: in vivo, barnyard grass (Echinochloa crus-galli); conditions: 320 g/ha, foliage application after 14-day growth, evaluated three weeks after application
How it was run: as §1

[4] = test system: wild oat; assay: Test Example 5: herbicidal effect by foliage application, plastic box (Table 20, symbol I); type: in vivo, wild oat (Avena fatua); conditions: 320 g/ha, foliage application after 14-day growth, evaluated three weeks after application
How it was run: as §1

[5] = test system: windgrass; assay: Test Example 5: herbicidal effect by foliage application, plastic box (Table 20, symbol L); type: in vivo, windgrass (Apera spica-venti); conditions: 320 g/ha, foliage application after 14-day growth, evaluated three weeks after application
How it was run: as §1

[6] = test system: Japanese bulrush; assay: Test Example 1: herbicidal activity, application before weed generation under submerged conditions (Table 16, symbol B); type: in vivo, Japanese bulrush (Schoenoplectus juncoides); conditions: amount of applied herbicide 320 g/ha
How it was run: as §2

[7] = test system: Italian ryegrass; assay: Test Example 5: herbicidal effect by foliage application, plastic box (Table 20, symbol K); type: in vivo, Italian ryegrass (Lolium multiflorum); conditions: 320 g/ha, foliage application after 14-day growth, evaluated three weeks after application
How it was run: as §1

[8] = test system: blackgrass; assay: Test Example 5: herbicidal effect by foliage application, plastic box (Table 20, symbol J); type: in vivo, blackgrass (Alopecurus myosuroides); conditions: 320 g/ha, foliage application after 14-day growth, evaluated three weeks after application
How it was run: as §1

[9] = test system: rice flat sedge; assay: Test Example 3: herbicidal effect by foliage application, Wagner pot (Table 18, symbol E); type: in vivo, rice flat sedge (Cyperus iria); conditions: 320 g/ha
How it was run: (§3)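 Plants were sown in alluvial soil held under 0.1–0.5 cm standing water and grown 14 days in a greenhouse at 25–30 °C. An emulsifiable formulation, water-diluted to the set dose, was then sprayed onto the foliage, and effects were scored three weeks later using previously defined criteria.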

[10] = test system: persian speedwell; assay: Test Example 5: herbicidal effect by foliage application, plastic box (Table 20, symbol R); type: in vivo, Persian speedwell (Veronica persica); conditions: 320 g/ha, foliage application after 14-day growth, evaluated three weeks after application
How it was run: as §1

[11] = test system: green foxtail; assay: Test Example 5: herbicidal effect by foliage application, plastic box (Table 20, symbol G); type: in vivo, green foxtail (Setaria viridis); conditions: 320 g/ha, foliage application after 14-day growth, evaluated three weeks after application
How it was run: as §1

[12] = test system: barnyard grass; assay: Test Example 4: herbicidal effect by soil treatment (Table 19, symbol H); type: in vivo, barnyard grass (Echinochloa crus-galli); conditions: amount of applied herbicide 320 g/ha
How it was run: (§4)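 Seeds were sown in sterilized diluvial soil and covered with about 1.5 cm of soil. An emulsion formulation diluted with water to a predetermined herbicide amount was sprayed evenly onto the soil surface. Plants grew in a greenhouse at 25° C. to 30° C., and the effect was scored three weeks after application using criteria from an earlier test.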

[13] = test system: Italian ryegrass; assay: Test Example 4: herbicidal effect by soil treatment (Table 19, symbol K); type: in vivo, Italian ryegrass (Lolium multiflorum); conditions: amount of applied herbicide 320 g/ha
How it was run: as §4

[14] = test system: lambsquarters; assay: Test Example 5: herbicidal effect by foliage application, plastic box (Table 20, symbol O); type: in vivo, lambsquarters (Chenopodium album); conditions: 320 g/ha, foliage application after 14-day growth, evaluated three weeks after application
How it was run: as §1

[15] = test system: windgrass; assay: Test Example 4: herbicidal effect by soil treatment (Table 19, symbol L); type: in vivo, windgrass (Apera spica-venti); conditions: amount of applied herbicide 320 g/ha
How it was run: as §4

[16] = test system: wild oat; assay: Test Example 4: herbicidal effect by soil treatment (Table 19, symbol I); type: in vivo, wild oat (Avena fatua); conditions: amount of applied herbicide 320 g/ha
How it was run: as §4

[17] = test system: green foxtail; assay: Test Example 4: herbicidal effect by soil treatment (Table 19, symbol G); type: in vivo, green foxtail (Setaria viridis); conditions: amount of applied herbicide 320 g/ha
How it was run: as §4

[18] = test system: blackgrass; assay: Test Example 4: herbicidal effect by soil treatment (Table 19, symbol J); type: in vivo, blackgrass (Alopecurus myosuroides); conditions: amount of applied herbicide 320 g/ha
How it was run: as §4

[19] = test system: oval-leafed pondweed; assay: Test Example 1: herbicidal activity, application before weed generation under submerged conditions (Table 16, symbol C); type: in vivo, oval-leafed pondweed (Monochoria vaginalis); conditions: amount of applied herbicide 320 g/ha
How it was run: as §2

[20] = test system: lambsquarters; assay: Test Example 4: herbicidal effect by soil treatment (Table 19, symbol O); type: in vivo, lambsquarters (Chenopodium album); conditions: amount of applied herbicide 320 g/ha
How it was run: as §4

[21] = test system: persian speedwell; assay: Test Example 4: herbicidal effect by soil treatment (Table 19, symbol R); type: in vivo, Persian speedwell (Veronica persica); conditions: amount of applied herbicide 320 g/ha
How it was run: as §4

[22] = test system: redroot pigweed; assay: Test Example 5: herbicidal effect by foliage application, plastic box (Table 20, symbol N); type: in vivo, redroot pigweed (Amaranthus retroflexus); conditions: 320 g/ha, foliage application after 14-day growth, evaluated three weeks after application
How it was run: as §1

[23] = test system: barnyard grass; assay: Test Example 3: herbicidal effect by foliage application, Wagner pot (Table 18, symbol H); type: in vivo, barnyard grass (Echinochloa crus-galli); conditions: 320 g/ha
How it was run: as §3

[24] = test system: chickweed; assay: Test Example 4: herbicidal effect by soil treatment (Table 19, symbol P); type: in vivo, common chickweed (Stellaria media); conditions: amount of applied herbicide 320 g/ha
How it was run: as §4

[25] = test system: velvetleaf; assay: Test Example 4: herbicidal effect by soil treatment (Table 19, symbol M); type: in vivo, velvetleaf (Abutilon theophrasti); conditions: amount of applied herbicide 320 g/ha
How it was run: as §4

[26] = test system: Chinese sprangletop; assay: Test Example 3: herbicidal effect by foliage application, Wagner pot (Table 18, symbol D); type: in vivo, chinese sprangletop (Leptochloa chinensis); conditions: 320 g/ha
How it was run: as §3

[27] = test system: chickweed; assay: Test Example 5: herbicidal effect by foliage application, plastic box (Table 20, symbol P); type: in vivo, common chickweed (Stellaria media); conditions: 320 g/ha, foliage application after 14-day growth, evaluated three weeks after application
How it was run: as §1

[28] = test system: southern crabgrass; assay: Test Example 5: herbicidal effect by foliage application, plastic box (Table 20, symbol F); type: in vivo, southern crabgrass (Digitaria ciliaris); conditions: 320 g/ha, foliage application after 14-day growth, evaluated three weeks after application
How it was run: as §1

[29] = test system: redroot pigweed; assay: Test Example 4: herbicidal effect by soil treatment (Table 19, symbol N); type: in vivo, redroot pigweed (Amaranthus retroflexus); conditions: amount of applied herbicide 320 g/ha
How it was run: as §4

[30] = test system: southern crabgrass; assay: Test Example 4: herbicidal effect by soil treatment (Table 19, symbol F); type: in vivo, southern crabgrass (Digitaria ciliaris); conditions: amount of applied herbicide 320 g/ha
How it was run: as §4

Compound	herbicidal effect on M: velvetleaf (evaluation grade 0-5) [1]	Herbicidal effect, A: late watergrass [2]	herbicidal effect on H: barnyard grass (evaluation grade 0-5) [3]	herbicidal effect on I: wild oat (evaluation grade 0-5) [4]	herbicidal effect on L: windgrass (evaluation grade 0-5) [5]	Herbicidal effect, B: Japanese bulrush [6]	herbicidal effect on K: Italian ryegrass (evaluation grade 0-5) [7]	herbicidal effect on J: blackgrass (evaluation grade 0-5) [8]	herbicidal effect on rice flat sedge (E) [9]	herbicidal effect on R: persian speedwell (evaluation grade 0-5) [10]	herbicidal effect on G: green foxtail (evaluation grade 0-5) [11]	Herbicidal effect by soil treatment, H: barnyard grass [12]	Herbicidal effect by soil treatment, K: Italian ryegrass [13]	herbicidal effect on O: lambsquarters (evaluation grade 0-5) [14]	Herbicidal effect by soil treatment, L: windgrass [15]	Herbicidal effect by soil treatment, I: wild oat [16]	Herbicidal effect by soil treatment, G: green foxtail [17]	Herbicidal effect by soil treatment, J: blackgrass [18]	Herbicidal effect, C: oval-leafed pondweed [19]	Herbicidal effect by soil treatment, O: lambsquarters [20]	other results
CCCC(=O)Oc1c(C)nn(C)c(=O)c1-c1c(-c2ccccc2OCC)sc2c(F)cccc12 [4-008]	4 (Herbicidal rate of 70% or more and less than 90%)	3 (Herbicidal rate of 40% or more and less than 70%)	4 (Herbicidal rate of 70% or more and less than 90%)	0 (Herbicidal rate of 5% or less (almost no effect))	5 (Herbicidal rate of 90% or more (almost completely withered))	3 (Herbicidal rate of 40% or more and less than 70%)	0 (Herbicidal rate of 5% or less (almost no effect))	3 (Herbicidal rate of 40% or more and less than 70%)	5 (Herbicidal rate of 90% or more (almost completely withered))	4 (Herbicidal rate of 70% or more and less than 90%)	5 (Herbicidal rate of 90% or more (almost completely withered))	3 (Herbicidal rate of 40% or more and less than 70%)	0 (Herbicidal rate of 5% or less (almost no effect))	3 (Herbicidal rate of 40% or more and less than 70%)	0 (Herbicidal rate of 5% or less (almost no effect))	0 (Herbicidal rate of 5% or less (almost no effect))	3 (Herbicidal rate of 40% or more and less than 70%)	0 (Herbicidal rate of 5% or less (almost no effect))	0 (Herbicidal rate of 5% or less (almost no effect))	2 (Herbicidal rate of 20% or more and less than 40%)	Herbicidal effect by soil treatment, R: persian speedwell [21]: 0 (Herbicidal rate of 5% or less (almost no effect)); herbicidal effect on N: redroot pigweed (evaluation grade 0-5) [22]: 5 (Herbicidal rate of 90% or more (almost completely withered)); herbicidal effect on barnyard grass (H) [23]: 5 (Herbicidal rate of 90% or more (almost completely withered)); Herbicidal effect by soil treatment, P: chickweed [24]: 1 (Herbicidal rate of 5% or more and less than 20%); Herbicidal effect by soil treatment, M: velvetleaf [25]: 1 (Herbicidal rate of 5% or more and less than 20%); herbicidal effect on Chinese sprangletop (D) [26]: 3 (Herbicidal rate of 40% or more and less than 70%); herbicidal effect on P: chickweed (evaluation grade 0-5) [27]: 5 (Herbicidal rate of 90% or more (almost completely withered)); herbicidal effect on F: southern crabgrass (evaluation grade 0-5) [28]: 4 (Herbicidal rate of 70% or more and less than 90%); Herbicidal effect by soil treatment, N: redroot pigweed [29]: 2 (Herbicidal rate of 20% or more and less than 40%); Herbicidal effect by soil treatment, F: southern crabgrass [30]: 2 (Herbicidal rate of 20% or more and less than 40%)
CCOc1cc(F)ccc1-c1sc2c(Cl)cccc2c1-c1c(O)c(C)nn(C)c1=O [4-035]	4 (Herbicidal rate of 70% or more and less than 90%)	2 (Herbicidal rate of 20% or more and less than 40%)	5 (Herbicidal rate of 90% or more (almost completely withered))	0 (Herbicidal rate of 5% or less (almost no effect))	5 (Herbicidal rate of 90% or more (almost completely withered))	0 (Herbicidal rate of 5% or less (almost no effect))	4 (Herbicidal rate of 70% or more and less than 90%)	5 (Herbicidal rate of 90% or more (almost completely withered))	5 (Herbicidal rate of 90% or more (almost completely withered))	5 (Herbicidal rate of 90% or more (almost completely withered))	5 (Herbicidal rate of 90% or more (almost completely withered))	5 (Herbicidal rate of 90% or more (almost completely withered))	0 (Herbicidal rate of 5% or less (almost no effect))	4 (Herbicidal rate of 70% or more and less than 90%)	0 (Herbicidal rate of 5% or less (almost no effect))	0 (Herbicidal rate of 5% or less (almost no effect))	3 (Herbicidal rate of 40% or more and less than 70%)	0 (Herbicidal rate of 5% or less (almost no effect))	0 (Herbicidal rate of 5% or less (almost no effect))	0 (Herbicidal rate of 5% or less (almost no effect))	Herbicidal effect by soil treatment, R: persian speedwell [21]: 1 (Herbicidal rate of 5% or more and less than 20%); herbicidal effect on N: redroot pigweed (evaluation grade 0-5) [22]: 5 (Herbicidal rate of 90% or more (almost completely withered)); herbicidal effect on barnyard grass (H) [23]: 5 (Herbicidal rate of 90% or more (almost completely withered)); Herbicidal effect by soil treatment, P: chickweed [24]: 3 (Herbicidal rate of 40% or more and less than 70%); Herbicidal effect by soil treatment, M: velvetleaf [25]: 2 (Herbicidal rate of 20% or more and less than 40%); herbicidal effect on Chinese sprangletop (D) [26]: 3 (Herbicidal rate of 40% or more and less than 70%); herbicidal effect on P: chickweed (evaluation grade 0-5) [27]: 4 (Herbicidal rate of 70% or more and less than 90%); herbicidal effect on F: southern crabgrass (evaluation grade 0-5) [28]: 5 (Herbicidal rate of 90% or more (almost completely withered)); Herbicidal effect by soil treatment, N: redroot pigweed [29]: 3 (Herbicidal rate of 40% or more and less than 70%); Herbicidal effect by soil treatment, F: southern crabgrass [30]: 4 (Herbicidal rate of 70% or more and less than 90%)

Reference: patent US20230085307A1, “PYRIDAZINONE COMPOUND AND HERBICIDE” (NISSAN CHEMICAL CORPORATION, priority 2019, published 2023)
